Results as given in ChEMBL document CHEMBL3885881, “DrugMatrix”.

Species: Rattus norvegicus
Type: toxicity, organism-based, Sprague-Dawley
Details: in vivo, po, route oral GAVAGE, […]; for ABSOLUTE EOSINOPHIL / ABSOLUTE LYMPHOCYTE / ABSOLUTE MONOCYTE / ABSOLUTE SEGMENTED NEUTROPHIL / BASOPHIL / EOSINOPHIL / ERYTHROCYTE COUNT / HEMATOCRIT / HEMOGLOBIN / LEUKOCYTE COUNT / LYMPHOCYTE / MEAN CORPUSCULAR HEMOGLOBIN / MEAN CORPUSCULAR HEMOGLOBIN CONCENTRATION / MEAN CORPUSCULAR VOLUME / MONOCYTE / NEUTROPHIL / NUCLEATED RED BLOOD CELLS / PLATELET COUNT: tissue Blood; for ALANINE AMINOTRANSFERASE / ALBUMIN / ALKALINE PHOSPHATASE / ASPARTATE AMINOTRANSFERASE / BLOOD UREA NITROGEN / CARBON DIOXIDE / CHLORIDE / CHOLESTEROL / CREATINE PHOSPHOKINASE / CREATININE / GLUCOSE / LACTATE DEHYDROGENASE / LIPASE / PHOSPHORUS / POTASSIUM / SODIUM / TOTAL BILIRUBIN / TOTAL PROTEIN / URIC ACID: tissue Plasma
[1] = 400 mg/kg, 24 h, dose level Low, time 1 day
[2] = 1175 mg/kg, 6 h, dose level High, time 0.25 day
[3] = 1175 mg/kg, 24 h, dose level High, time 1 day

Description: DrugMatrix - Regimen: Single

SMILES: ClC(Cl)(Cl)Cl [CARBON TETRACHLORIDE]
- ABSOLUTE EOSINOPHIL [1]: 0 CELLS/uL
- ABSOLUTE LYMPHOCYTE [1]: 6780.67 CELLS/uL
- ABSOLUTE MONOCYTE [1]: 96.83 CELLS/uL
- ABSOLUTE SEGMENTED NEUTROPHIL [1]: 789.17 CELLS/uL
- BASOPHIL [1]: 0%
- EOSINOPHIL [1]: 0%
- ERYTHROCYTE COUNT [1]: 5.7 x10E6/uL
- HEMATOCRIT [1]: 35.63%
- HEMOGLOBIN [1]: 14.05 G/DL
- LEUKOCYTE COUNT [1]: 7.67 x10E3/uL
- LYMPHOCYTE [1]: 88%
- MEAN CORPUSCULAR HEMOGLOBIN [1]: 24.7 pg
- MEAN CORPUSCULAR HEMOGLOBIN CONCENTRATION [1]: 39.43 G/DL
- MEAN CORPUSCULAR VOLUME [1]: 62.67 fL
- MONOCYTE [1]: 1.17%
- NEUTROPHIL [1]: 10.83%
- NUCLEATED RED BLOOD CELLS [1]: 0 /100WBC
- PLATELET COUNT [1]: 966 x10E3/uL
- ALANINE AMINOTRANSFERASE [1]: 129.17 u/L
- ALBUMIN [1]: 4.17 G/DL
- ALKALINE PHOSPHATASE [1]: 338.17 u/L
- ASPARTATE AMINOTRANSFERASE [1]: 420.5 u/L
- BLOOD UREA NITROGEN [1]: 16.33 mg/dL
- CARBON DIOXIDE [1]: 34.33 mmol/L
- CHLORIDE [1]: 98.5 MEQ/L
- CHOLESTEROL [1]: 58 mg/dL
- CREATINE PHOSPHOKINASE [1]: 252 u/L
- CREATININE [1]: 0.29 mg/dL
- GLUCOSE [1]: 127.33 mg/dL
- LACTATE DEHYDROGENASE [1]: 240.17 u/L
- LIPASE [1]: 9.83 u/L
- PHOSPHORUS [1]: 9.37 mg/dL
- POTASSIUM [1]: 5.7 MEQ/L
- SODIUM [1]: 144.08 MEQ/L
- TOTAL BILIRUBIN [1]: 0.22 mg/dL
- TOTAL PROTEIN [1]: 6.3 G/DL
- URIC ACID [1]: 0.53 mg/dL
- ABSOLUTE EOSINOPHIL [2]: 83.17 CELLS/uL
- ABSOLUTE LYMPHOCYTE [2]: 9204 CELLS/uL
- ABSOLUTE MONOCYTE [2]: 323.67 CELLS/uL
- ABSOLUTE SEGMENTED NEUTROPHIL [2]: 4922.5 CELLS/uL
- BASOPHIL [2]: 0%
- EOSINOPHIL [2]: 0.5%
- ERYTHROCYTE COUNT [2]: 5.84 x10E6/uL
- HEMATOCRIT [2]: 39.2%
- HEMOGLOBIN [2]: 14.45 G/DL
- LEUKOCYTE COUNT [2]: 14.53 x10E3/uL
- LYMPHOCYTE [2]: 63.5%
- MEAN CORPUSCULAR HEMOGLOBIN [2]: 24.75 pg
- MEAN CORPUSCULAR HEMOGLOBIN CONCENTRATION [2]: 36.87 G/DL
- MEAN CORPUSCULAR VOLUME [2]: 67.08 fL
- MONOCYTE [2]: 2%
- NEUTROPHIL [2]: 34%
- NUCLEATED RED BLOOD CELLS [2]: 0.17 /100WBC
- PLATELET COUNT [2]: 1289.67 x10E3/uL
- ALANINE AMINOTRANSFERASE [2]: 157 u/L
- ALBUMIN [2]: 4.5 G/DL
- ALKALINE PHOSPHATASE [2]: 379.83 u/L
- ASPARTATE AMINOTRANSFERASE [2]: 369 u/L
- BLOOD UREA NITROGEN [2]: 14.83 mg/dL
- CARBON DIOXIDE [2]: 21 mmol/L
- CHLORIDE [2]: 97.83 MEQ/L
- CHOLESTEROL [2]: 59.17 mg/dL
- CREATINE PHOSPHOKINASE [2]: 433.5 u/L
- CREATININE [2]: 0.14 mg/dL
- GLUCOSE [2]: 128.33 mg/dL
- LACTATE DEHYDROGENASE [2]: 1251.5 u/L
- LIPASE [2]: 9.83 u/L
- PHOSPHORUS [2]: 13.47 mg/dL
- POTASSIUM [2]: 5.85 MEQ/L
- SODIUM [2]: 140.9 MEQ/L
- TOTAL BILIRUBIN [2]: 0.32 mg/dL
- TOTAL PROTEIN [2]: 5.88 G/DL
- URIC ACID [2]: 2.1 mg/dL
- ABSOLUTE EOSINOPHIL [3]: 28.67 CELLS/uL
- ABSOLUTE LYMPHOCYTE [3]: 8687.33 CELLS/uL
- ABSOLUTE MONOCYTE [3]: 78.33 CELLS/uL
- ABSOLUTE SEGMENTED NEUTROPHIL [3]: 1872.33 CELLS/uL
- BASOPHIL [3]: 0%
- EOSINOPHIL [3]: 0.33%
- ERYTHROCYTE COUNT [3]: 5.91 x10E6/uL
- HEMATOCRIT [3]: 37.1%
- HEMOGLOBIN [3]: 14.7 G/DL
- LEUKOCYTE COUNT [3]: 10.67 x10E3/uL
- LYMPHOCYTE [3]: 81%
- MEAN CORPUSCULAR HEMOGLOBIN [3]: 24.93 pg
- MEAN CORPUSCULAR HEMOGLOBIN CONCENTRATION [3]: 39.62 G/DL
- MEAN CORPUSCULAR VOLUME [3]: 62.85 fL
- MONOCYTE [3]: 0.83%
- NEUTROPHIL [3]: 17.83%
- NUCLEATED RED BLOOD CELLS [3]: 0 /100WBC
- PLATELET COUNT [3]: 912.17 x10E3/uL
- ALANINE AMINOTRANSFERASE [3]: 544.67 u/L
- ALBUMIN [3]: 4.05 G/DL
- ALKALINE PHOSPHATASE [3]: 371.33 u/L
- ASPARTATE AMINOTRANSFERASE [3]: 3091.33 u/L
- BLOOD UREA NITROGEN [3]: 15.5 mg/dL
- CARBON DIOXIDE [3]: 33.83 mmol/L
- CHLORIDE [3]: 98.33 MEQ/L
- CHOLESTEROL [3]: 55 mg/dL
- CREATINE PHOSPHOKINASE [3]: 312.83 u/L
- CREATININE [3]: 0.32 mg/dL
- GLUCOSE [3]: 129.83 mg/dL
- LACTATE DEHYDROGENASE [3]: 4392.83 u/L
- LIPASE [3]: 10 u/L
- PHOSPHORUS [3]: 9.72 mg/dL
- POTASSIUM [3]: 5.12 MEQ/L
- SODIUM [3]: 144.23 MEQ/L
- TOTAL BILIRUBIN [3]: 0.27 mg/dL
- TOTAL PROTEIN [3]: 6.05 G/DL
- URIC ACID [3]: 0.52 mg/dL
